For test [1], the target named is T1, Serine protease HTRA1 (Homo sapiens, UniProt Q92743). Kind of test: Inhibition of HTRA1 (unknown origin).
The target in test [2] is Chymotrypsin (Homo sapiens) (UniProt Q99895+P17538+P40313+Q6GPI1). Kind of test: Inhibition of chymotrypsin (unknown origin) at 1 uM. Format: protein assay.
In test [3] the target is Kallikrein-7 (Homo sapiens) (UniProt P49862). Kind of test: Inhibition of kallikrein-7 (unknown origin) at 1 uM.
The target in a further test is T2, Caspase-6 (Homo sapiens) (UniProt P55212).
T2 sequence (whole entry): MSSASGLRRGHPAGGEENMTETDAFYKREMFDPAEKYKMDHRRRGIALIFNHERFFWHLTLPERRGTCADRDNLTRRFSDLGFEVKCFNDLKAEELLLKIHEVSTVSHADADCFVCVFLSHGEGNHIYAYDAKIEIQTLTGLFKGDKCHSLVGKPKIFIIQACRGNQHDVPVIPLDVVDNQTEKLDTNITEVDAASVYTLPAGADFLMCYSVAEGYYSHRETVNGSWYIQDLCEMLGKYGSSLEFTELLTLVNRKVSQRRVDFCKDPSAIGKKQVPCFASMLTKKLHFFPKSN
Kind of test: Inhibition of Caspase-6 (unknown origin) at 1 uM.

For the next test, the target named is T3, Caspase-9 (Homo sapiens) (UniProt P55211).
T3 sequence (whole entry): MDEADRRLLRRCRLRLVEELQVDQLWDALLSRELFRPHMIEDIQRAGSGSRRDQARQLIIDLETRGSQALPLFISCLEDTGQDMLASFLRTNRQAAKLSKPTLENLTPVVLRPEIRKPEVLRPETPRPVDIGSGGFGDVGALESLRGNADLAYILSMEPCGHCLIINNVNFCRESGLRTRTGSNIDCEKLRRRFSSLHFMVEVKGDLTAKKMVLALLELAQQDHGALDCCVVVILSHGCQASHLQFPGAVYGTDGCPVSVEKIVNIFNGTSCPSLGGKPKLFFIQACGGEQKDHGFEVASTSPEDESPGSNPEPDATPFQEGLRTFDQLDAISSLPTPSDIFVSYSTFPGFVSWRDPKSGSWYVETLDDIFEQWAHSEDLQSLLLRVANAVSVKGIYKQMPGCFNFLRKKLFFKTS
Kind of test: Inhibition of Caspase-9 (unknown origin) at 1 uM.

Test [4] addresses T1, Serine protease HTRA1. Kind of test: Inhibition of HTRA1 (unknown origin) assessed as residual activity at 1 uM relative to control.

SMILES strings stand for the structures. Active and inactive are the calls of the source. The rule behind the calls is not given here. Square brackets hold non-standard residues; d marks the D form. Peptide text beside a SMILES is read from it. * marks the point of attachment. hMet = CSCCC[C@H](N)C(=O)O; X1 = CC(C)[C@H](N*)B(O)O

T1 sequence (Q92743 whole entry): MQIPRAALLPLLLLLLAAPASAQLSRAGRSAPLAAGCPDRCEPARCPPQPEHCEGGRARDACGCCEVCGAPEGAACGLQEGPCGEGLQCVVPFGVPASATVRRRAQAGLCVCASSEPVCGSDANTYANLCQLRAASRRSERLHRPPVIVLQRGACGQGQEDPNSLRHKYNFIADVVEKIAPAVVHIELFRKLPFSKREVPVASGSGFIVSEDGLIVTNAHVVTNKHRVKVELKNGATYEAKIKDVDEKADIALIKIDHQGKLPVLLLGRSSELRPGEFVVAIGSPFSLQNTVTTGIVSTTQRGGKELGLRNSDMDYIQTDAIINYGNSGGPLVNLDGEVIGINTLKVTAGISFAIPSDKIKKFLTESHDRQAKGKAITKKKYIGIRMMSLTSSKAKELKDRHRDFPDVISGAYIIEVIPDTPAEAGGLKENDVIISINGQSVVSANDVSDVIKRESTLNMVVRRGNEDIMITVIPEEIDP
Sequence of Kallikrein-7 (Homo sapiens) (P49862 30-253 limits assumed): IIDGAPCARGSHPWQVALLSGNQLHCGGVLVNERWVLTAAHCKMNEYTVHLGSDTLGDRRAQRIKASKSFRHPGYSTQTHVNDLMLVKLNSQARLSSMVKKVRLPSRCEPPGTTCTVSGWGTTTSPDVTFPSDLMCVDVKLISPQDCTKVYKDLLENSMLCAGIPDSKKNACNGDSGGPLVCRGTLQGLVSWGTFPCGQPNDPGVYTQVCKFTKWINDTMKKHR

Regarding `CC(C)C[C@H](NC(=O)[C@H](Cc1cccc(Cl)c1)NC(=O)CCc1ccccc1)C(=O)N[C@H](B(O)O)C(C)C`, inhibition at Serine protease HTRA1 [1] was half-maximal at 0.104 µM (IC50). The same measure, in the same setting: with `CC(C)C[C@H](NC(=O)[C@H](Cc1cccc(Br)c1)NC(=O)OCc1ccccc1)C(=O)N[C@H](B(O)O)C(C)C` the figure was 0.017 µM. Still for that read-out and setting: the result for `CC(C)C[C@H](NC(=O)[C@H](Cc1ccc(Cl)cc1)NC(=O)OCc1ccccc1)C(=O)N[C@H](B(O)O)C(C)C` reads 0.073 µM; that for `CC(C)C[C@H](NC(=O)[C@H](Cc1ccccc1)NC(=O)OCc1ccccc1)C(=O)N[C@H](B(O)O)C(C)C`, 0.411 µM; that for `CSCCC[C@H](NC(=O)[C@@H]1CCCN1C(=O)[C@@H](N)CC(=O)O)C(=O)N[C@@H](Cc1ccccc1)C(=O)N[C@@H](CCCCN)C(=O)N[C@@H](CC(C)C)C(=O)N[C@H](B(O)O)C(C)C` (H-DP[hMet]FKL-X1), 2.6 µM.

`CC(C)C[C@H](NC(=O)[C@H](Cc1cccc(Cl)c1)NC(=O)NCc1ccccc1)C(=O)N[C@H](B(O)O)C(C)C`: at Serine protease HTRA1 [1], the half-maximal inhibitory concentration (IC50) was determined as 0.495 µM.

At Serine protease HTRA1 [1], `Cc1cccc(C[C@H](NC(=O)OCc2ccccc2)C(=O)N[C@@H](CC(C)C)C(=O)N[C@H](B(O)O)C(C)C)c1` gave an IC50 of 0.045 µM. Still for that read-out and setting: the result for `CC(C)C[C@H](NC(=O)[C@H](CCCCN)NC(=O)OCc1ccccc1)C(=O)N[C@H](B(O)O)C(C)C` reads 15.3 µM. As to `CC(C)C[C@H](NC(=O)[C@H](Cc1cccc(Cl)c1)NC(=O)C(C)(C)Cc1ccccc1)C(=O)N[C@H](B(O)O)C1CCC1`, the IC50 on Serine protease HTRA1 [1] turned out to be 0.013 µM. The inhibition entry (in test [2]; in test [3]; on Caspase-6 (Homo sapiens); at Caspase-9 (Homo sapiens)) was “inactive” throughout. Further, at Serine protease HTRA1 [4], the Activity turned out to be 0%.

`CC(C)C[C@H](NC(=O)[C@H](CC1CCCCC1)NC(=O)OCc1ccccc1)C(=O)N[C@H](B(O)O)C(C)C` came in with a 50% inhibitory concentration (IC50) against Serine protease HTRA1 [1] of 0.466 µM.

`CC(C)C[C@H](NC(=O)[C@H](Cc1cccc(Cl)c1)NC(=O)C(C)(C)Cc1ccccc1)C(=O)N[C@H](B(O)O)C(C)C` had an IC50 at Serine protease HTRA1 [1] of 0.011 µM.

Turning to `CCCCC[C@H](NC(=O)OCc1ccccc1)C(=O)N[C@@H](CC(C)C)C(=O)N[C@H](B(O)O)C(C)C`, the half-inhibitory concentration (IC50) on Serine protease HTRA1 [1] is 1.92 µM.

Compound `CC(C)C[C@H](NC(=O)[C@H](Cc1ccc[n+]([O-])c1)NC(=O)OCc1ccccc1)C(=O)N[C@H](B(O)O)C(C)C` displayed a half-inhibitory concentration (IC50) against Serine protease HTRA1 [1] of 0.654 µM. On Serine protease HTRA1 [1], `CC(C)C[C@H](NC(=O)[C@H](Cc1cccc(Cl)c1)NC(=O)OCc1ccccc1)C(=O)N[C@H](B(O)O)C(C)C` registered a half-inhibitory concentration (IC50) of 0.01 µM. The inhibition result (in test [2]; in test [3]; at Caspase-6 (Homo sapiens); on Caspase-9 (Homo sapiens)) was “inactive” each time. In addition, the Activity at Serine protease HTRA1 [4] was 0%. For `CC(C)C[C@H](NC(=O)[C@H](Cc1cc[n+]([O-])cc1)NC(=O)OCc1ccccc1)C(=O)N[C@H](B(O)O)C(C)C`, the IC50 at Serine protease HTRA1 [1] came to 1.54 µM.

On Serine protease HTRA1 [1], `CC(C)C[C@H](NC(=O)[C@H](Cc1cccc(Cl)c1)NCCCc1ccccc1)C(=O)N[C@H](B(O)O)C(C)C` came in with a half-maximal inhibitory concentration (IC50) of 4.9 µM. On the same count and under the same terms, the result for `CC(C)C[C@H](NC(=O)[C@H](Cc1cccc(F)c1)NC(=O)OCc1ccccc1)C(=O)N[C@H](B(O)O)C(C)C` reads 0.088 µM.

As usually defined, the IC50 is the concentration at which inhibition is half-maximal. The low end stands for higher potency, the high end for lower potency.

These data come from ChEMBL document CHEMBL5576065, “Identification of highly potent and selective HTRA1 inhibitors” (Bioorg Med Chem Lett, 2024).
